Test results as given in patent EP0934259B1, “BETA-SULFONAMIDO HYDROXAMIC ACIDS AS MATRIX METALLOPROTEINASE AND TACE INHIBITORS” (American Cyanamid Company, priority 1996, dated 1998).

Tests used:
Format in all cases: biochemical
[1] = biological target: T1, MMP-1 (Homo sapiens, UniProt P03956); assay: MMP-1 inhibition (thiopeptide or fluorescent peptide substrate assay)
T1 sequence (P03956 100-469): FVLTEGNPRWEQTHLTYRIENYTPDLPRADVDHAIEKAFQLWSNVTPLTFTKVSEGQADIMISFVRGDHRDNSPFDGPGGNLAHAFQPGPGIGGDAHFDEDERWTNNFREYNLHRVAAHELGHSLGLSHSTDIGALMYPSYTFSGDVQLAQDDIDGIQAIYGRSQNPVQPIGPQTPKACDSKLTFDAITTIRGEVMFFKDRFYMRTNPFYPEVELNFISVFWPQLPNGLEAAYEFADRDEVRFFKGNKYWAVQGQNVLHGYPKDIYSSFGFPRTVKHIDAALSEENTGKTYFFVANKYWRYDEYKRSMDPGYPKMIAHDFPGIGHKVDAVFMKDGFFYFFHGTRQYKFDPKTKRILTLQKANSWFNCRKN
Experimental: (§1) These assays are based on the cleavage of a thiopeptide substrates such as Ac-Pro-Leu-Gly(2-mercapto-4-methyl-pentanoyl)-Leu-Gly-OEt by the matrix metalloproteinases MMP-1, MMP-13 (collagenases) or MMP-9 (gelatinase), which results in the release of a substrate product that reacts colorimetrically with DTNB (5,5'-dithiobis(2-nitro-benzoic acid)). The enzyme activity is measured by the rate of the color increase. The thiopeptide substrate is made up fresh as a 20 mM stock in 100% DMSO and the DTNB is dissolved in 100% DMSO as a 100 mM stock and stored in the dark at room temperature. […] The assay buffer, enzyme, vehicle or inhibitor, and DTNB/substrate are added in this order to a 96 well plate (total reaction volume of 200 µl) and the increase in color is monitored spectrophotometrically for 5 minutes at 405 nm on a plate reader and the increase in color over time is plotted as a linear line.
(§2) Alternatively, a fluorescent peptide substrate is used. […] Upon cleavage of the substrate by an MMP, the fluorescence that is generated is quantitated on the fluorescence plate reader. […] The reaction is read (excitation 340 nm, emission 444 nm) for 10 min, and the increase in fluorescence over time is plotted as a linear line.
(§3) For either the thiopeptide or fluorescent peptide assays, the slope of the line is calculated and represents the reaction rate. […]

[2] = biological target: MMP-9 (Homo sapiens, UniProt P14780); assay: MMP-9 inhibition (thiopeptide or fluorescent peptide substrate assay)
Sequence of MMP-9 (P14780 94-707): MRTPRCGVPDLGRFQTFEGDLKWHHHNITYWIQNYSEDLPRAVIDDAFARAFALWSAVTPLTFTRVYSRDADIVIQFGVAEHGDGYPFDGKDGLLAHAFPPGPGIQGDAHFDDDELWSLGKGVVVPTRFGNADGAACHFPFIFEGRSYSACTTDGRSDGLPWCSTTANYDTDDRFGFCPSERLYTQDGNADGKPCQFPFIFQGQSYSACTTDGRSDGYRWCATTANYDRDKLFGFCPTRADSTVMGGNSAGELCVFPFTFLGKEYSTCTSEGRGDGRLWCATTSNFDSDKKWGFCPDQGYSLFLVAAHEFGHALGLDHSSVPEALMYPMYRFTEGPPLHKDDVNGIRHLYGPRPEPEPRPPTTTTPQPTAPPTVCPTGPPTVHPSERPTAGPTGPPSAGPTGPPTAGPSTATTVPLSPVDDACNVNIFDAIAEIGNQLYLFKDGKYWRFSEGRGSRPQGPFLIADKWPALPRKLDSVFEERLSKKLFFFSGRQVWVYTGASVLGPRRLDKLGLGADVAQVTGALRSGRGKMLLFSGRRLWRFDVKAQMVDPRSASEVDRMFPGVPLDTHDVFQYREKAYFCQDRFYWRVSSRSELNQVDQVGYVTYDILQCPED
Experimental: as §1, §2, §3

[3] = biological target: T2, TACE (Homo sapiens, UniProt P78536); assay: TACE inhibition (fluorescent peptidyl substrate assay)
T2 construct: purchased Immunex
T2 sequence (P78536 215-824): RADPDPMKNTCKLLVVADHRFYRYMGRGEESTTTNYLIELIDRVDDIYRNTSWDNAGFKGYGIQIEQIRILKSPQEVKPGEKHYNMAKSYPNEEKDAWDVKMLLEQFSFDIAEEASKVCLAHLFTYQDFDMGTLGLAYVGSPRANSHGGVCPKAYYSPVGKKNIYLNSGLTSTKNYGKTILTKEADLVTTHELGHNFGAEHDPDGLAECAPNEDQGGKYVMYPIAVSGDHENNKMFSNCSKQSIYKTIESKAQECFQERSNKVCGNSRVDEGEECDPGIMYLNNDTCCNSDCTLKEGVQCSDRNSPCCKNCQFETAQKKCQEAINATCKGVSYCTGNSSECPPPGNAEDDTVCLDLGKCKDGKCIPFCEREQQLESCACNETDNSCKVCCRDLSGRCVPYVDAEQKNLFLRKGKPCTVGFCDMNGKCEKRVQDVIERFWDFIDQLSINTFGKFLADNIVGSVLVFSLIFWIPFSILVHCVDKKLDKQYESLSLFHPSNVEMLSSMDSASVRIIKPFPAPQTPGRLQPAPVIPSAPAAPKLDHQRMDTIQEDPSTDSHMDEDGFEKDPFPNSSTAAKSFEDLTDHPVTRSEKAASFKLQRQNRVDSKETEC
Experimental: Using 96-well black microtiter plates, each well receives a solution composed of 10 µL TACE (Immunex, final concentration 1µg/mL), 70µL Tris buffer, pH 7.4 containing 10% glycerol (final concentration 10 mM), and 10 µL of test compound solution in DMSO (final concentration 1µM, DMSO concentration <1%) and incubated for 10 minutes at room temperature. The reaction is initiated by addition of a fluorescent peptidyl substrate (final concentration 100 µM) to each well and then shaking on a shaker for 5 sec.
The reaction is read (excitation 340 nm, emission 420 nm) for 10 min. and the increase in fluorescence over time is plotted as a linear line. The slope of the line is calculated and represents the reaction rate.
The linearity of the reaction rate is confirmed (r^2 >0.85). The mean (x±sem) of the control rate is calculated and compared for statistical significance (p<0.05) with drug-treated rates using Dunnett's multiple comparison test. Dose-response relationships can be generate using multiple doses of drug and IC50 values with 95% CI are estimated using linear regression.

Row | IC50 [1] [nM] | IC50 [2] [nM] | IC50 [3] [nM] | inhibition at 1 µM ([3]; read-out: TACE % inhibition at 1 µM concentration) [%] | Compound
1 | 176 | 181 | 1610 |  | COc1ccc(S(=O)(=O)N(Cc2ccccc2)[C@@H]2CCCC[C@H]2C(=O)NO)cc1 (relative stereo) [Example 9, (trans)-2-[Benzyl-(4-methoxy-benzenesulfonyl)-amino]-cyclohexanecarboxylic acid hydroxyamide]
2 | 616 | 275 |  | 24 | COc1ccc(S(=O)(=O)N(Cc2ccccc2)[C@H]2CCCC[C@H]2C(=O)NO)cc1 (relative stereo) [Example 10, (cis)-2-[Benzyl-(4-methoxy-benzenesulfonyl)-amino]-cyclohexanecarboxylic acid hydroxyamide]
